Measured values taken from patent US5366982A (priority 1990, dated 1994).

Key:
leukotriene B4 receptors = leukotriene B4 receptors (Cavia porcellus, UniProt H0VYV8); experiment: biochemical; type: binding, guinea-pig; conditions: Table XIX; guinea-pig spleen membranes, tritium-labelled LTB4; read-out: IC50 Binding (Cheng)
[1] = tested on: guinea-pig pulmonary parenchyma; experiment: L. Parenchyma: guinea-pig pulmonary parenchyma contraction antagonism induced by LTB4 (Sirois); type: cell-based; conditions: Cavia porcellus; Table XIX; guinea-pig pulmonary parenchyma contraction induced by LTB4; read-out: IC50 L. Parenchyma
Method: Further, compounds of this invention are shown to be leukotriene B4 antagonists in the technique of guinea-pig pulmonary parenchyma contraction antagonism induced by LTB4 described by P. Sirois et al., Pharmacology, 31, 225-236 (1985). In this technique, products are active at concentrations of between about 1 to about 10,000 nM.

Sequence of leukotriene B4 receptors (H0VYV8 1-348): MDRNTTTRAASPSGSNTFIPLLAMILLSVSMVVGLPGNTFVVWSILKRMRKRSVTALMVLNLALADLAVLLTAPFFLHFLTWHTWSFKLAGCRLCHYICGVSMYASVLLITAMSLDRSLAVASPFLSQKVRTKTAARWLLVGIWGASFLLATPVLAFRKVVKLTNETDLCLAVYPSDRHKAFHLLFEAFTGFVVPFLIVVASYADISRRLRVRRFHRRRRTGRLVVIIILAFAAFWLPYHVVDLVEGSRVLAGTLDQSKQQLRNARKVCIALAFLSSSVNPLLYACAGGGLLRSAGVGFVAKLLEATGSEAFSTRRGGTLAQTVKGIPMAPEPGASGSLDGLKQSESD

Row | IC50 (leukotriene B4 receptors) | IC50 [1] | SMILES
1 | 25 nM | 1300 nM | O=C(O)CCCCCCOc1cc(-c2ccccc2)cc(-c2ccccc2)n1 [7-[(4,6-diphenyl-2-pyridyl)oxy]heptanoic acid]
2 | 40 nM | > 10000 nM | COC(=O)CCCCCOc1cc(-c2ccccc2)cc(-c2ccccc2)n1 [methyl 6-[(4,6-diphenyl-2-pyridyl)oxy]hexanoate]
